Assay results: US20250009750A1, “METHODS OF TREATING DISORDERS ASSOCIATED WITH EYA OVEREXPRESSION AND MUTATIONS” (The Board of Regents of the University of Texas System, priority 2023, published 2025)

How the values were obtained:
[1] = biological target: T1, EYA4 tyrosine phosphatase (Homo sapiens, UniProt O95677); assay: Malachite green phosphatase assay, full length EYA4, tyrosine phosphatase activity; assay type: biochemical; conditions: increasing amounts of inhibitor
T1 construct: GFP (pEGFP-C1) (N, cleaved yes); made in house; host or cells: Expi293 mammalian suspension cells
T1 sequence (O95677 1-639): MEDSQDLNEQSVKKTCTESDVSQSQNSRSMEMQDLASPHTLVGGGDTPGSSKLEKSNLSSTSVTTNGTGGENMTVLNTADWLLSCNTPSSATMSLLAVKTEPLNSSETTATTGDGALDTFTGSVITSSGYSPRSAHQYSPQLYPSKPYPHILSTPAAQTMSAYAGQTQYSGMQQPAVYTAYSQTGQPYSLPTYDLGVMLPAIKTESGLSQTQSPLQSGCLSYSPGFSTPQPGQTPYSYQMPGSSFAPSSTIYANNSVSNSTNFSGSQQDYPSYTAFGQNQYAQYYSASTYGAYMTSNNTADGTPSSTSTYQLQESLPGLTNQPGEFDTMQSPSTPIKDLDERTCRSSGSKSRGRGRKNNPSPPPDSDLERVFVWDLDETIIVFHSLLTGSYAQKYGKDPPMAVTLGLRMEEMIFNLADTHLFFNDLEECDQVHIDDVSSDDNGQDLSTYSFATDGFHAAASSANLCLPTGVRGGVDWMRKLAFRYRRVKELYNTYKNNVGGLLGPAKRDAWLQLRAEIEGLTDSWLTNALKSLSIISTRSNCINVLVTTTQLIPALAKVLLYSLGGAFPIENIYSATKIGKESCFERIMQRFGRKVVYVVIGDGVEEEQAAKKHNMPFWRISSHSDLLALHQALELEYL
Description: (§1) To measure phosphatase activity, increasing concentrations of EYA4 (0-200 nM, alone or pre-incubated with ssDNA) were incubated in the presence of 400 nM potential substrates (peptides sourced from Genscript, see list and sequence in figures) in 50 μL of reaction buffer A ([…] pH 6, 2 mM MgCl2, 50 μM DTT) for 1 h at 37° C. At the end of the first incubation, the reaction mix containing malachite green was added to phosphatase or ATPase reactions, and the mixture was further incubated for 30 minutes at 37° C. Plates were read at 620 nm in a plate reader. The quantity of […] was inferred from the standard curve prepared as per manufacturer recommendation (Sigma).
[…] proteins have been described to dephosphorylate residue Y142 on the histone variant H2AX and the same activity was recently confirmed in EYA4. Using the synthetic peptide KATQASQE{pTyr} as substrate and a commercial colorimetric malachite green assay (Sigma) that allows to quantify […] released in the buffer by a phosphatase, EYA4's tyrosine phosphatase activity was assayed in the presence of putative inhibitors.
In a malachite green assay, the tyrosine but not serine/threonine phosphatase activity was inhibited by CIDD molecule—149689. […]

[2] = biological target: T2, EYA4 serine/threonine phosphatase domain (Homo sapiens, UniProt O95677); assay: Malachite green phosphatase assay, first 365 residues of EYA4 (serine/threonine phosphatase domain), 53BP1-derived peptide; assay type: biochemical
T2 construct: the N-terminus domain of EYA4 (residues 1-365), was sub-cloned as a Strep-mCherry-EYA4-His construct; Strep (N); His (C); made in house; host or cells: Sf9 insect cells (baculovirus, pFastBac1)
T2 sequence (O95677 1-365): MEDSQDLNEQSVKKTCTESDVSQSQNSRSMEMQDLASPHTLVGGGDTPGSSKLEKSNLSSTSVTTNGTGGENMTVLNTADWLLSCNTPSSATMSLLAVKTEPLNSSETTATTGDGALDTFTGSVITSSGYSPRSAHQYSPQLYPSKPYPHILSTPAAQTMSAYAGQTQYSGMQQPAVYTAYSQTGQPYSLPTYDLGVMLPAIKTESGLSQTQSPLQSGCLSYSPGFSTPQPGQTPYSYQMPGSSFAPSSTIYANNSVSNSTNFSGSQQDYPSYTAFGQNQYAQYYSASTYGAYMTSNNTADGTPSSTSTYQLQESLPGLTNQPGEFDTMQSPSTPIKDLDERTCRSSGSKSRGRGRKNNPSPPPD
Description: as §1
In a malachite green assay, the tyrosine but not serine/threonine phosphatase activity was inhibited by CIDD molecule—149689. For this assay, full length EYA4 purified near homogeneity as previously described was incubated with increasing amounts of inhibitor, then mixed with either peptide KATQASQE{pTyr} from H2AX or with peptide from RAD51.

[3] = tested on: HRD+ pancreatic cell lines; assay: Survival of treated pancreatic cell lines panel; assay type: cell-based; conditions: at the concentrations tested, FIG. 34C
Source text: Using molecules that target regulators of DNA metabolism mechanisms (repair, recombination, replication), such as kinase and phosphatase can offer a therapeutic window for drug resistant, HRD>0 patients. EYA4 inhibitors have been tested on the pancreatic cell lines panel. […] EYA4i have therapeutic potential for the treatment of pancreatic cancer, including PARPi refractory disease.

| Structure (SMILES) | EYA4 tyrosine phosphatase activity ([1]; peptide KATQASQE{pTyr} from H2AX) | EYA4 tyrosine phosphatase activity ([1]; peptide from RAD51) | serine/threonine phosphatase activity [2] | growth of pancreatic cells [3] |
| --- | --- | --- | --- | --- |
| Clc1ccc(CNc2nc(NC3CCCC3)nc3ccccc23)cc1Cl [CIDD molecule—149689, N2-cyclopentyl-N4-(3,4-dichlorobenzyl) quinazoline-2,4-diamine] | significantly reduced | significantly reduced | not inhibited |  |
| O=C(NN=Cc1ccc(Sc2ncccn2)o1)c1cccc(Cl)c1 [CSCS14817788384, 3-chloro-N′-{[5-(pyrimidin-2-ylsulfanyl)furan-2-yl]methylidene}benzohydrazide] |  |  |  | does not efficiently inhibit growth |
